Consider 1 compound from patent US6451828B1, “Selective inhibition of glutaminase by bis-thiadiazoles” (priority 2000, dated 2002).

The subject of assay [1] is intestinal epithelial (CACO2) cells. The assay can be described thus: Intracellular nucleotides in intestinal epithelial cells. The format is cell-based. Particulars: at 10 μM, FIG. 5B. Here is the method:
The remaining volume of the extracts was used for chromatographic determination of nucleic acids, as described in Di Pierro et al. This assay reflects the activity of a variety of glutamine amidotransferases, including CTP synthetase, which are mechanistically and functionally related to glutaminase.
CTP synthetase is a glutamine amidotransferase which synthesizes CTP by adding the amide nitrogen of glutamine to UTP.
Intestinal epithelial (CACO2) cells were grown in 12 well plates with Eagles minimal essential medium containing 2 mM glutamine, as recommended (American Tissue Culture Collection). When the cells reached about 80% confluency, fresh glutamine was added to 2 mM. […] After 6.5 h of incubation, cultures were washed twice with phosphate buffered saline and extracted with 100 μL 1M perchloric acid. Extracts were neutralized with 30 μL of 5M potassium carbonate, centrifuged, and analyzed by HPLC for nucleotides, as described in Di Pierro et al. 1995, and for amino acids, as described in Lo et al. 1998. Results are shown in FIG. 5A (amino acids) and FIG. 5B (nucleotides).

For the next assay, the target named is thrombin (Homo sapiens, UniProt P00734). The assay can be described thus: Specificity: effect on mechanistically related enzyme. Particulars: at 30 μM (data not shown). Format: biochemical. As for the experimental part:
Specificity for glutaminase was evaluated at two levels. Compounds were evaluated for specific interactions with several thiol hydrolases (cathepsin B, caspase-9, calpain-1, and […]). These are cysteine proteases which are believed to function by a mechanisms similar to that of glutaminase. Compounds were also evaluated for effects on intracellular amino acids and nucleotides in CACO2 (intestinal epithelial) cells (Example 5), and for effects on amino acids in primary cultures of cerebellar neurons (granule cells) and astrocytes (Examples 6-7). These measurements reflect interactions with other glutamine utilizing enzymes involved in amino acid and nucleic acid biosynthesis and homeostasis. For example, a decrease in cytidine triphosphate (CTP) and an increase in uridine triphosphate (UTP) on treatment with DON (6-diazo-5-oxo-L-norleucine), a known nonselective antiglutamine affinity label, is indicative of inhibition of the activity of CTP synthetase, for which UTP is the substrate and CTP the product.

For a further assay, the system named is astrocytes. The assay can be described thus: Intracellular amino acids in primary cultures of astrocytes. The format is cell-based. Here is the method: To produce dose response curves for lowering of intracellular Glu and Asp (FIG. 6A-B), the procedure was repeated with 4 days (for cerebellar granule cells) and 12 days of incubation (for astrocytes). […] Results are shown in FIGS. 6A-B. Data are expressed as the ratio of Glu, Asp, or GABA to Ala (neurons and astrocytes) or Ser (astrocytes).

The test system of another assay is microglia (BV-2) cells. The experiment in a line: Inhibition of microglial glutamate secretion. The format is cell-based. As to conditions: Mus musculus. As for the experimental part: As described in Wood, glutamate efflux from microglia is dependent on the presence of added external glutamine. […] Therefore, the concentration of glutamate in the culture medium can be used directly as a measure of glutamate production by these cells.
In assaying the invention compounds, microglia (BV-2) cells were cultured using standard methods, as described in Example 4. On the day of the experiment, cells were incubated in glutamine free medium for 1 to 1.5 hours, then glutamine and test compounds, dissolved in glutamine free medium, were added. Aliquots were removed at 2 h and 4 h for glutamate analysis.
Inhibition of Microglial Glutamate Secretion
BV-2 cells were cultured in 24 well plates using Dulbeccos minimal essential medium containing 10% heat inactivated fetal bovine serum, and grown to 70-80% confluency before use. On the day of the experiment, cells were placed in glutamine free medium for 1 to 1.5 hours. […] This solution was used to replace one half of the 0.5 mL culture medium volume at the end of the glutamine free incubation. Aliquots of 10 μL medium were removed at 2 h and 4 h and placed in 96 well microtiter plates with 90 μL DMF/water (1:9) for glutamate analysis.

The next assay deals with cerebellar granule cells. The assay can be described thus: Intracellular amino acids in primary cultures of cerebellar granule cells. The format is cell-based. Here is the method: After 5 h incubation, the cultures were washed twice with phosphate buffered saline, extracted with perchloric acid and analyzed for amino acids as described for FIG. 5A. To produce dose response curves for lowering of intracellular Glu and Asp (FIG. 6A-B), the procedure was repeated with 4 days (for cerebellar granule cells) and 12 days of incubation (for astrocytes). […] Results are shown in FIGS. 6A-B. Data are expressed as the ratio of Glu, Asp, or GABA to Ala (neurons and astrocytes) or Ser (astrocytes).

Assay [2] has as its target T1, glutaminase activity in rat brain membranes (Rattus norvegicus, UniProt P13264).
T1 construct: from tissue; host or cells: rat brain membranes
T1 sequence (P13264 55-674): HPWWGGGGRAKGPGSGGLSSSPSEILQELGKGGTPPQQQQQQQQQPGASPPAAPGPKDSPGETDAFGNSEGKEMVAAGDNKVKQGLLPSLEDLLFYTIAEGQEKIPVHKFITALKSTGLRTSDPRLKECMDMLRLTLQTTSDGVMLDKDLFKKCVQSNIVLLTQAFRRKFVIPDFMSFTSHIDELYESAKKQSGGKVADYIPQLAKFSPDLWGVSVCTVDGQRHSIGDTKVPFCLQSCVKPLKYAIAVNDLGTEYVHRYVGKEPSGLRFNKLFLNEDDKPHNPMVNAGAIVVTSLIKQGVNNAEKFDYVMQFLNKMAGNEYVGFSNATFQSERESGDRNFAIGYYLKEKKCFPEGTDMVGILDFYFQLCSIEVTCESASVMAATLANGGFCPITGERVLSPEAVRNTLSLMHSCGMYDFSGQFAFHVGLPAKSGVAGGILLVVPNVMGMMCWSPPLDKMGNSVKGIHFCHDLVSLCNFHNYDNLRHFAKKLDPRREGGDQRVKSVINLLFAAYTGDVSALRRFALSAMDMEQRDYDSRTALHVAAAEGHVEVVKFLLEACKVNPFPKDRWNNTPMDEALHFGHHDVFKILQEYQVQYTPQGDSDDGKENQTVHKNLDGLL
The experiment in a line: Inhibition of glutaminase activity in rat brain membranes. Format: biochemical. Particulars: PO4 conc. = 8 mM; FIG. 2. Here is the method: Aliquots of 10 μL were removed at 0, 85, and 195 min, added to 90 μL 1:3 DMF/H2O, and analyzed for glutamate by HPLC following derivatization with o-phthaldialdehyde and 2-mercaptoethanol (see Lo et al. 1998).

As a reminder, the IC50 is the concentration that inhibits the measured activity by half. A word on the inhibition: it is how much of the control response was suppressed. As for `O=C(Cc1ccccc1)Nc1nnc(CCSCCc2nnc(NC(=O)Cc3ccccc3)s2)s1` [SNX-1770, bis-2′-[5-(phenylacetamido)-1,3,4-thiadiazol-2-yl]ethyl sulfide], in assay [1], the “Effect on intracellular nucleotides” value is listed as “no effect”. For the same compound, the Effect on thrombin entry at thrombin is reported as “Nor did it have any effect”. Moreover, the half-maximal inhibitory concentration (IC50) with astrocytes (Astrocyte, primary cultures of astrocytes, read-out: IC50, lowering of cellular glutamate) was in the range of 100 to 300 nM; in the assay with microglia (BV-2) cells (BV-2 cells, glutamine added, FIG. 4, read-out: IC50, inhibition of glutamate efflux by microglia) it was 80 to 120 nM; in the assay with cerebellar granule cells (primary cultures of cerebellar granule cells, read-out: IC50, lowering of cellular glutamate), 50 to 100 nM. Besides, the “Lowering of cellular glutamate” value with astrocytes (astrocytes, partial and specific) is roughly 30%; in the assay with cerebellar granule cells (granule cell neurons, partial and specific) it was roughly 30%. The “Effect on intracellular (non-glutamate) amino acids, including serine, glycine, arginine, alanine, taurine” value was “no effect” with astrocytes (at 10 μM, astrocytes) and “no effect” in the assay with cerebellar granule cells (at 10 μM, cultured cerebellar neurons). Besides, the inhibition at 10 µM with microglia (BV-2) cells (BV-2, at 10 μM, read-out: Inhibition of glutamate efflux by microglia) is roughly 85%. For the same compound, the “Effect on cellular GABA” value in the assay on cerebellar granule cells (granule cells, levels up to 10 μM, FIG. 6C) is “no effect”. Moreover, in assay [2], the “Inhibition of glutaminase activity in rat brain membranes” value is “inhibition of glutaminase activity”.
